From ChEMBL document CHEMBL1250475, “Inhibition of monoamine oxidase by indole and benzofuran derivatives” (Eur J Med Chem, 2010)

Legend:
[1] = molecular target: T1, Amine oxidase [flavin-containing] B (Homo sapiens, UniProt P27338); test: Inhibition of human recombinant MAOB expressed in baculovirus infected BTI insect cells after 20 mins by spectrofluorimetric analysis
T1 sequence (P27338 whole entry): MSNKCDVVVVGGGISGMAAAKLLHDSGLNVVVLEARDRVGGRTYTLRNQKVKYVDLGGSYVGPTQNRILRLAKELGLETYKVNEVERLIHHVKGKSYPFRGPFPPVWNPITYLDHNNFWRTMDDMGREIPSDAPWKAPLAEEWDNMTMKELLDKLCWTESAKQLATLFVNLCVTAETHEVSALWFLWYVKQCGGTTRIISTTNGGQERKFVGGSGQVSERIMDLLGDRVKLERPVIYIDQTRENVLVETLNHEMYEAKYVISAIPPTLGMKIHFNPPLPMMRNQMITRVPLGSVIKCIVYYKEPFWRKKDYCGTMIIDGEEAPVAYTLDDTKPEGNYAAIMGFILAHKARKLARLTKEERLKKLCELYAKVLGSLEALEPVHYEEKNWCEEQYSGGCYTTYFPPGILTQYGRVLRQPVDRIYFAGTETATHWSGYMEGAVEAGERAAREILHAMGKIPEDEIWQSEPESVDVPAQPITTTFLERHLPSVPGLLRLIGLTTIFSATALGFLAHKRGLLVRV

Homo sapiens = organism: Homo sapiens; test: Selectivity ratio of Ki for human recombinant MAOA to Ki for human recombinant MAOB
[2] = molecular target: T2, Amine oxidase [flavin-containing] A (Homo sapiens, UniProt P21397); test: Inhibition of human recombinant MAOA expressed in baculovirus infected BTI insect cells after 20 mins by spectrofluorimetric analysis
T2 sequence (P21397 whole entry): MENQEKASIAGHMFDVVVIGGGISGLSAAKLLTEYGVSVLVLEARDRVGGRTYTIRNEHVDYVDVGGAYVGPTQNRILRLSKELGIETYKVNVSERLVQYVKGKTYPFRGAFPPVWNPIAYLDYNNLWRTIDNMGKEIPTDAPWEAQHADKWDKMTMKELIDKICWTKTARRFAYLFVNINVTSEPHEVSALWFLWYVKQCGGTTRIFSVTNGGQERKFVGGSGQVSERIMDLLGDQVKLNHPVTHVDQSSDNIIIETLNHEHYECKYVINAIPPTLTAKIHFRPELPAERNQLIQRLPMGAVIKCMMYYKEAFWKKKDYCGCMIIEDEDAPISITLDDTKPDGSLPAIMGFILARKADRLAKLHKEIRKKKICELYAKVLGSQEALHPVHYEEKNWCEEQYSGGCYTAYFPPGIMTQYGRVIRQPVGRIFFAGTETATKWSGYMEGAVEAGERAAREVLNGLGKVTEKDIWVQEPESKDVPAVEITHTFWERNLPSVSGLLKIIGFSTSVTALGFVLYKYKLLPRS

[3] = molecular target: T1, Amine oxidase [flavin-containing] B; test: Competitive inhibition of human recombinant MAOB expressed in baculovirus infected BTI insect cells at 0.015 to 0.06 uM by Lineweaver-Burke plot analysis
[4] = molecular target: T1, Amine oxidase [flavin-containing] B; test: Reversible inhibition of human recombinant MAOB expressed in baculovirus infected BTI insect cells at 2 times IC50 concentration preincubated for 60 mins measured after 15 mins; details: 0.25 h

SMILES | IC50 [1] [µM] | Ki [1] [µM] | Selectivity ratio (Homo sapiens) | IC50 [2] [µM] | Ki [2] [µM] | inhibition (INH) [3] | inhibition (INH) [4]
Cc1cc2cc(NC(=O)/C=C/c3ccccc3)ccc2[nH]1 | 18.8 | 8.01 | 22 | 663 | 175 | – | –
Cc1cc2cc(NC(=O)c3ccccc3)ccc2[nH]1 | 3.84 | 1.65 | 24 | 150 | 39.5 | – | –
Cc1cc2cc(NC(=O)c3cccc(Cl)c3)ccc2[nH]1 | 0.76 | 0.33 | 25 | 31 | 8.18 | – | –
Cc1cc2cc(NC(=O)C3CCCCC3)ccc2[nH]1 | 6.96 | 3 | 6 | 69.4 | 18.3 | – | –
Cc1cc2cc(NC(=O)c3cccc(S(=O)(=O)O)c3)ccc2[nH]1 | 176 | 75.7 | 0.9 | 259 | 68.3 | – | –
Cc1cc2cc(NC(=O)c3ccc(Cl)c(Cl)c3)ccc2[nH]1 | 0.06 | 0.03 | 99 | 9.79 | 2.58 | Active | Active
O=C(/C=C/c1ccccc1)Oc1ccc2c(c1)CC(=O)O2 | 1.2 | 0.52 | 6 | 12.5 | 3.29 | – | –
Cc1cc2cc(NC(=O)/C=C/c3cccc(Cl)c3)ccc2[nH]1 | 9.83 | 4.23 | 0.5 | 7.67 | 2.02 | – | –
O=C(/C=C/c1cccc(Cl)c1)Oc1ccc2c(c1)CC(=O)O2 | 0.44 | 0.19 | 5 | 3.9 | 1.03 | – | –
Cc1cc2cc(NC(=O)c3ccc[n+](C)c3)ccc2[nH]1 | – | – | – | 20.8 | 5.47 | – | –
O=C1Cc2cc(OC(=O)c3ccccc3)ccc2O1 | 8.89 | 3.83 | 0.8 | 11.6 | 3.05 | – | –
O=C1Cc2cc(OC(=O)c3cccc(Cl)c3)ccc2O1 | 0.99 | 0.43 | 5 | 7.66 | 2.02 | – | Active
